The results in this text go back to patent US4161522A, “Method for blocking allergic responses” (The Regents of the University of California, priority 1978, dated 1979).

Ends that are not written are not given here. Peptide text beside a SMILES is read from it. * marks the point of attachment. Octanoyl = CCCCCCCC(=O)*

In data set [1] the test system is DBA white mice. In words: Acute toxicity in mice. The format is in vivo. Particulars: for survival 24 to 72 hours post-injection: 1.4 ml total i.d./s.c./i.v./i.p. As to the method: Acute toxicity was determined as follows:
DBA white mice (average weight 15 g.) were each injected with 1.4 ml. of a solution of the peptide in phosphate buffered saline, pH 7.4, as follows:
0.1 ml. × 3 intradermally
0.1 ml. × 3 subcutaneously
0.6 ml. intraperitoneally
The peptides and concentrations used were as follows: […]

The test system of data set [2] is Wil-2WT human lymphoblastoid tissue culture cell line. The data set can be described thus: Blocking of binding of I125-tagged IgE to Wil-2WT cells in vitro. How it is done: In this regard, the 8 carbon chain acyl substituted peptide, octanoyl-Asp-Ser-Asp-Pro-Arg, as well as the […] acyl substituted peptide, acetoyl-Asp-Ser-Asp-Pro-Arg, were prepared by the method outlined in Example 10 above. These peptides were tested, in vitro, for their blocking ability with respect to the Wil-2WT human lymphoblastoid tissue culture cell line as follows.
Wil-2WT cells in culture medium were centrifuged at about 2000 RPM. The separated cells were mixed with minimal essential medium (MEM) and recentrifuged at 2000 RPM. The supernatent was decanted off completely and the residual cells were suspended in MEM+3% human serum albumin (HSA). The cell suspension was divided into suitable aliquots in reaction tubes. Blanks and control reaction tubes were also prepared. To various of the cell suspension tubes, were added known amount of Sha Myeloma E; Sha Myeloma E and octanoyl-Asp-Ser-Asp-Pro-Arg; or Sha Myeloma E and acetoyl-Asp-Ser-Asp-Pro-Arg. After mixing and standing at room temperature for approximately one hour, a known quantity of deaggregated IgE, tagged with radioactive iodine (I^125) was added to the tubes. After standing a short time, the capped tubes were mixed by slow inversion over an hour's time. […] The suspension was then counted on a gamma counter in order to determine the amount of tagged IgE bound to the Wil-2WT cells.

Data set [3] relates to Prausnitz-Kustner (P-K) reaction. The data set can be described thus: Prausnitz-Kustner (P-K) reaction blocking assay in human volunteers. The settings on record: peptide approx. 6 μg/ml. The format is in vivo. As to the method:
The "blocking" activity of the polypeptides of the invention can be assayed by utilization of the classic Prausnitz-Kustner (P-K) reaction. In this classic method, a known allergic serum i.e., one that contains IgE specific for a known antigen or allergen is injected intradermally into a human volunteer. After waiting a period of time, e.g. 20 or more hours, the injected sites are then challenged with a prick or injection of a solution of an antigen that is specific for the IgE in the injected serum. Within the next 10 to 30 minutes a positive reaction is evidenced by the development of a wheal (and flare) at the injected site. The more extensive the diameter of the wheal the more intensive is the allergic reaction. That is, a more extensive wheal indicates a greater release of histamine into the tissues at the injected site. Conversely, the development of wheals of lesser diameter or the absence of any wheal at all indicates diminished allergic reaction and/or no allergic reaction at all. The P-K reaction as noted above is a classic test and is universally known and utilized by allergists.
All of these assays were performed using a single proven safe P-K donor serum that contains IgE specific for guinea pig allergens.
Peptide solutions were either injected intradermally 1 to 24 hours prior to the P-K serum, or mixed with dilutions of the P-K serum for simultaneous injection. Initial tests were performed using the P-K serum at from 1:4 to 1:200 dilutions. Further studies were run at a fixed P-K dilution of 1:32 while the invention peptide solutions were varied to contain from about 1 mM to […] of the peptide being tested. Injected sites on the volunteers were challenged by prick-puncture of guinea pig BCA 1:40 w/v (purchased from Berkeley Biologicals, Inc.).
Human volunteers were chosen who had serum IgE levels below 100 U/ml. (242 ng/ml.) which levels have been previously shown to assure successful P-K reactivity. […] P-K and skin tests were performed on the back and/or forearm. […]

In data set [4] the test system is wheal and flare reaction. The data set can be described thus: Displacement of IgE: direct skin challenge in an individual sensitive to guinea pig antigens. The format is in vivo, human. Particulars: single sensitive individual. How it is done: It has also been determined that the active polypeptides of the invention appear to have the ability to "displace" IgE from mast cells as well as to prevent the binding of the IgE to the receptors. In a single test, an individual known to have extreme sensitivity to guinea pig antigens, that is a person with a high natural concentration of guinea-pig-antigen-sensitive IgE, was injected with polypeptides in accordance with the invention, and […] reaction to guinea pig antigen was noted.
Specifically, approximately 2 nM each of Asp-Ser-Asp-Pro-Arg and Ala-Asp-Ser-Asp-Pro-Arg were each intradermally injected into 3 marked sites. For comparison, TASME, as well as a control of the buffer diluent alone, was also each injected into 3 marked sites. At one, five and twenty-four hours subsequent to the polypeptide and control injection, one of each peptide and one diluent site were prick-puncture challenged with guinea pig antigen. […] However, at the twenty-four hour challenge, the wheal at the Asp-Ser-Asp-Pro-Arg site was approximately 45% smaller; while at the Ala-Asp-Ser-Asp-Pro-Arg site, the wheal was approximately 23% smaller.

As to `C[C@H](N)C(=O)N[C@@H](CC(=O)O)C(=O)N[C@@H](CO)C(=O)N[C@@H](CC(=O)O)C(=O)N1CCC[C@H]1C(=O)N[C@@H](CCCNC(=N)N)C(=O)O` [Ala-Asp-Ser-Asp-Pro-Arg] (H-ADSDPR-OH), in data set [1] (5 μg/ml (375 mg/kg), 6 mice), the “survival 24 to 72 hours post-injection” value is on record as “all still living”; the “post-mortem gross and microscopic examination of tissues and organs” value was “no local or systemic toxico-logical abnormalities”.
Take `N=C(N)NCCC[C@H](NC(=O)[C@@H]1CCCN1C(=O)[C@H](CC(=O)O)NC(=O)[C@H](CO)NC(=O)[C@@H](N)CC(=O)O)C(=O)O` [Asp-Ser-Asp-Pro-Arg] (H-DSDPR-OH): in data set [1] (10 μg/ml (1 mg/kg), 8 mice), the “survival 24 to 72 hours post-injection” value is reported as “all still living”; the “post-mortem gross and microscopic examination of tissues and organs” value is “no local or systemic toxico-logical abnormalities”. Also, in data set [1] (13 μg/ml (1.3 mg/kg), 8 mice), the “survival 24 to 72 hours post-injection” value is on record as “all still living”; the “post-mortem gross and microscopic examination of tissues and organs” value is “no local or systemic toxico-logical abnormalities”.
As for `CCCCCCCC(=O)N[C@@H](CC(=O)O)C(=O)N[C@@H](CO)C(=O)N[C@@H](CC(=O)O)C(=O)N1CCC[C@H]1C(=O)N[C@@H](CCCNC(=N)N)C(=O)O` [octanoyl-Asp-Ser-Asp-Pro-Arg] (Octanoyl-DSDPR-OH), the “blocking of the binding of IgE to Wil-2WT cells, highest seen” value in data set [2] (as high as, in several procedures) is given as at most 25%.
As to acetoyl-Asp-Ser-Asp-Pro-Arg (Ac-DSDPR), the “blocking ability on Wil-2WT cells (in words)” value in data set [2] is reported as “did not exhibit any blocking ability whatsoever”.
Turning to “tosyl-L-arginine sarcosine methylester [TASME]”, the “inhibition, individual high” value in data set [3] (highest of six individuals, 0.1 ml per site) was determined as 40%. Moreover, the “inhibition, individual low” value in data set [3] (lowest of six individuals, 0.1 ml per site) came out at 0%. Besides, in data set [3] (six individuals, 0.1 ml intradermally, 0.05 ml diluted P-K serum containing 0.2 ng IgE, versus control wheal), the “average % inhibition (P-K wheal)” value came out at 24%. Also, the “inhibition of the wheal and flare reaction” value in data set [4] (challenge at one and five hours after intradermal injection of approx. 2 nM) is “No inhibition”. For the same compound, in data set [4] (challenge at twenty-four hours after intradermal injection of approx. 2 nM), the “wheal smaller than at buffered saline diluent site” value is “No reduction”.
